Literature values as cited in patent publication US20250248977A1, “Tablet Formulation Of Tafamidis Or Pharmaceutically Acceptable Salt Thereof” (Navinta LLC, priority 2024, published 2025).

O=C(O)c1ccc2nc(-c3cc(Cl)cc(Cl)c3)oc2c1 [Tafamidis, 2-(3,5-dichlorophenyl)-1,3-benzoxazole-6-carboxylic acid]
aqueous solubility: low
